Entries after “also recorded” stand apart in the source; their conditions may differ. One block for each compound: values may come before it.
Legend:
[1] = test system: cleaved caspase 3 and PARP; experiment: Western blot of apoptotic molecules; type: cell-based, mouse; conditions: B16 melanoma cells
tyrosinase mRNA = experiment: Reverse transcriptase PCR of tyrosinase mRNA; type: cell-based, mouse; conditions: B16 melanoma cells
Source text: Total RNA was isolated using Trizol reagent according to the manufacturer's protocol (Invitrogen, Carlsbad, Calif., USA). cDNA was synthesized using the SuperScript First Strand Synthesis System (Invitrogen, Carlsbad, Calif., USA) and was then amplified by PCR with tyrosinase-specific primers (forward primer, tyrosinase-S,5′-[…]-3′ [−2236/−2217] (SEQ ID NO: 1) and reverse primer, tyrosinase-AS,5′-[…]-3′ [+63/+42]) (SEQ ID NO: 2) and GAPDH specific primers: 5′ to 3′F […] (SEQ ID NO: 3); 5′ to 3′R […] (SEQ ID NO: 4). The PCR cycling protocol was as follows: 30 cycles for 10 min at 95° C., 30 sec at 95° C., 30 sec at 55° C., 1 min at 72° C., and 10 min at 72° C. Glyceraldehyde 3-phosphate dehydrogenase (GAPDH) was amplified as an internal control. The PCR products were electrophoresed on a 2% agarose gel and analyzed using a gel documentation system.

B16 melanoma cells [2] = experiment: Anti-pigmentation effect, photographs of cell pellets; type: cell-based, mouse
Method: (§1) At different time points, cells were harvested using trysin-EDTA and the cell pellets were washed once with phosphate-buffered saline (PBS). A sample amount from each compound treatment group was divided into two equal parts. These cell pellets were then stored at −80° C. prior to the measurement of the tyrosinase activity and melanin content.

B16 melanoma cells [3] = experiment: MTT cell viability assay; type: cell-based, mouse; conditions: 24 hrs of treatment; for B16 melanoma cell viability / proliferation rate: increasing dosages
Method: B16 mouse melanoma cells were purchased from (ATCC, Manassas, Va., USA).
The base medium for the cell line was Dulbecco's modified Eagle's medium (DMEM). To make the complete growth medium, fetal bovine serum (final concentration, 10%) was added to the base medium. Tocotrienol (T3) and tocopherol (TP) isomers and the palm tocotrienol-rich fraction (TRF) were purified from a palm fatty acid distillate (PFAD) using molecular distillation and Novasep® equipment (Novasep, Pompey, France). The extraction facility is located in Tuas, Singapore. The PFAD feed was purchased from Kuala Lumpur Kepong Berhad (Kuala Lumpur, Malaysia). The purity of the vitamin E isomers was verified by HPLC and gas chromatography (GC) percentage peak area.
For the cell viability study, 5×10^3 cells re-suspended in 100 μl of medium were plated into each well of a 96-well plate. The cells were then treated with different concentrations of the vitamin-E isomers for 24 hrs. After the treatment, 20 μl of MTT solution (1 mg/ml in PBS; Sigma-Aldrich, St. Louis, Mo., USA) was added to each well and the cells were incubated at 37° C. for 2 hrs. The formazan crystals were then re-suspended in 200 μl of DMSO and the intensity at 595 nm was measured.

B16 cells = experiment: Melanin content of pre-treated B16 cells after UV exposure; type: cell-based, mouse; conditions: 10 minutes UV exposure (short and long wave UV)
Source text: (§2) The UVB source for cell irradiation was provided using a UVP UVM-57 handheld UV lamp (UVP Inc, Upland, Calif., USA).

[4] = test system: B16 cells xenografted on the flank of nude mice; experiment: B16 xenograft model in nude mice; type: in vivo; conditions: cells pre-treated with 20 μM for 1 week, 14 days oral supplementation
Method: The experimental protocol was approved by the IACUC Committee of the A-STAR Biological Resource Centre (BRC) at Biopolis (IACUC no. 080302). Male BALB/c athymic nude mice (4-5 weeks old, 18-22 g) were purchased from The Jackson Laboratory (Bar Harbor, Me., USA). Mice were housed in Department 1 of the Biological Resource Centre (Biopolis, Singapore) under the standard condition (20.8±2° C., 55±1% relative humidity, 12 hrs light/dark cycle) with rodent diet (Harlan Laboratories, Inc., Indianapolis, Ind., USA) and chlorinated reverse osmosis water supplied in a pathogen-free environment. Briefly, B16 cells were pre-treated with 20 μM of γ- and δ-T3, or palm TRF for 1 week. Then, 5×10^5 pre-treated B16 cells in 100 μl serum-free DMEM were injected subcutaneously into the flank of nude mice using a 1-ml syringe with a 26-gauge needle (Becton Dickinson, Franklin Lakes, N.J., USA). This was followed by a 2-week oral supplementation of γ- and δ-T3, or palm TRF at the dose of 100 mg/kg/day. Altogether, there are four experimental groups: G1, vehicle control; G2, γT3 (100 mg/kg/d); G3, δT3 (100 mg/kg/d); and G4, full spectrum palm TRF (100 mg/kg/d). The mice were weighed daily and the tumors were measured using a Digital Carbon Fiber Caliper (Fisher Scientific, Pittsburgh, Pa., USA) at the 5th and 14th day after innoculation. After 14 days of treatment, the mice were euthanized by CO2 inhalation. Blood samples were collected through cardiac bleeding using a 26-gauge needle. Blood samples were incubated at room temperature for 30 min, followed by centrifugation at 4400 rpm for 30 min at 4° C. Serum, as the supernatant, was separated from plasma and stored at −80° C. Tumors, liver, kidney, spleen, lung, heart, and skin were harvested.

B16 melanoma cells [5] = experiment: Melanin content of treated B16 melanoma cells; type: cell-based, mouse; conditions: for melanin content lower than controls: 20 μM
Method: as §1
Harvested cell pellets were dissolved in 1 ml of 1N sodium hydroxide before incubation at 80° C. The melanin content was then immediately measured at 420 nm. The absorbance percentage values of the treated groups in comparison to untreated controls were calculated against per μg of the determined total protein content.

tyrosinase [6] = experiment: UV-induced tyrosinase protein expression, Western blot; type: cell-based, mouse; conditions: for tyrosinase protein expression of B16 cells exposed to UV: UV 1, 10, 30 and 60 minutes
Method: as §2
Briefly, cell lysates were prepared by suspending cell pellets in lysis buffer (50 mmol/l Tris-HCl [pH 8.0], 150 mmol/l NaCl, 1% NP40, 0.5% deoxycholate, 0.1% SDS, 1 mg/ml aprotinin, 1 μg/ml leupeptin, and 1 mmol/l phenylmethylsulfonyl fluoride). The protein concentration was measured using the DC Protein Assay kit (Bio-Rad, Hercules, Calif., USA). An equal amount of protein (30 μg) was loaded onto a 10% SDS polyacrylamide gel for electrophoresis, then transferred onto a polyvinylidene difluoride membrane (Amersham, Piscataway, N.J., USA). The membrane was then incubated with primary antibodies for 1 hr at room temperature against tyrosinase, Id1, and beta-actin (Santa Cruz Biotechnology, Inc., Santa Cruz, Calif., USA). After incubation with appropriate secondary antibodies, signals were visualized by an ECL Western blotting system (Amersham). The expression of β-actin was assessed as an internal loading control for total cell lysate.

tyrosinase [7] = experiment: Western blot of tyrosinase protein expression in B16 melanoma cells; type: cell-based, mouse; conditions: for tyrosinase protein suppression, dose response and relative potency: increasing dosage; for time response of tyrosinase suppression: single dose, 24 hrs versus 48 hrs
Method: Carcinogenesis, 2006, 27, 2180-9. Briefly, cell lysates were prepared by suspending cell pellets in lysis buffer (50 mmol/l Tris-HCl [pH 8.0], 150 mmol/l NaCl, 1% NP40, 0.5% deoxycholate, 0.1% SDS, […], 1 μg/ml leupeptin, and 1 mmol/l phenylmethylsulfonyl fluoride). The protein concentration was measured using the DC Protein Assay kit (Bio-Rad, Hercules, Calif., USA). An equal amount of protein (30 μg) was loaded onto a 10% SDS polyacrylamide gel for electrophoresis, then transferred onto a polyvinylidene difluoride membrane (Amersham, Piscataway, N.J., USA). The membrane was then incubated with primary antibodies for 1 hr at room temperature against tyrosinase, Id1, and beta-actin (Santa Cruz Biotechnology, Inc., Santa Cruz, Calif., USA). After incubation with appropriate secondary antibodies, signals were visualized by an ECL Western blotting system (Amersham). The expression of β-actin was assessed as an internal loading control for total cell lysate.

[8] = 0.05% (3.5 mM kojic acid, 4.5 mM sodium lactate)

Compound: O=c1cc(CO)occ1O [kojic acid]
induction of apoptotic molecules (cleaved caspase 3 and PARP) [1]: induced cellular apoptosis; also recorded: induced critical apoptotic molecules in a dose-dependent manner
tyrosinase mRNA (tyrosinase mRNA): not affected; also recorded: No change of tyrosinase mRNA
cell pellet pigmentation (B16 melanoma cells [2]; 20 μM): comparable pigmentation level to controls
cell pellet pigmentation (B16 melanoma cells [2]; [8]): lighter cell pigmentation
concentration with anti-proliferation effect (B16 melanoma cells [3]): ≥ 0.5%
B16 melanoma cell viability / proliferation rate (B16 melanoma cells [3]): inhibit B16 melanoma cell viability at high concentrations

tyrosinase mRNA (tyrosinase mRNA): No change of tyrosinase mRNA
tyrosinase mRNA (tyrosinase mRNA; listed as δ-T3): not affected
Compound: CC(C)=CCC/C(C)=C/CC/C(C)=C/CC[C@]1(C)CCc2cc(O)cc(C)c2O1 [δ-tocotrienol, 8-methyltocotrienol]
melanin content after UV exposure (B16 cells): significantly suppressed the melanin content
induction of apoptotic molecules (cleaved caspase 3 and PARP) [1]: induced critical apoptotic molecules in a dose-dependent manner
induction of apoptotic molecules (cleaved caspase 3 and PARP) ([1]; listed as δ-T3): induced cellular apoptosis
cell pellet pigmentation (B16 melanoma cells [2]; 20 μM, listed as delta-T3): lighter cell pigmentation
cell pellet pigmentation (B16 melanoma cells [2]; 20 μM, listed as δT3): lighter cell pigmentation
pigmentation of solid tumors [4]: lighter in colour compared to controls
tumor size [4]: significantly smaller
melanin content lower than controls (B16 melanoma cells [5]; day 5): 45%
melanin content lower than controls (B16 melanoma cells [5]; day 9): 30%
constitutive melanin synthesis (B16 melanoma cells [5]; B16 melanoma cells): suppress constitutive melanin synthesis
suppression of short-term UVB-induced tyrosinase activation (tyrosinase [6]; <10 min UVB): more potent than γT3
tyrosinase protein expression of B16 cells exposed to UV (tyrosinase [6]): significantly suppressed the tyrosinase protein expression
long-term inhibitory effect on UVB-induced tyrosinase activation (tyrosinase [6]; long-term UVB): comparable
tyrosinase protein expression (tyrosinase [7]; 20 μM treatment, listed as δ-T3): remarkable suppression of tyrosinase protein expression
tyrosinase protein expression (tyrosinase [7]; 20 μM treatment, listed as δT3): suppresses tyrosinase protein expression
tyrosinase protein suppression, dose response and relative potency (tyrosinase [7]; listed as δ-T3): significant suppression of tyrosinase in a dose-dependent manner
tyrosinase protein suppression, dose response and relative potency (tyrosinase [7]; listed as δT3): most potent inhibitor of tyrosinase protein
time response of tyrosinase suppression (tyrosinase [7]; listed as δ-T3): enhanced by increasing the treatment period from 24 to 48 hrs
time response of tyrosinase suppression (tyrosinase [7]; listed as δT3): enhanced after a 48 hr incubation period
B16 melanoma cell viability / proliferation rate (B16 melanoma cells [3]): inhibited the proliferation rate of B16 melanoma cells in a dose-dependent fashion; also recorded: inhibit B16 melanoma cell viability at high concentrations

Compound: CC(=O)Oc1cc2c(c(C)c1C)OC(C)(CC/C=C(\C)CC/C=C(\C)CCC=C(C)C)CC2 (stereo not shown) [γT3 acetate, γ-tocotrienol acetate]
tyrosinase protein expression (tyrosinase [7]; 20 μM treatment): suppresses tyrosinase protein expression

tyrosinase mRNA (tyrosinase mRNA): No change of tyrosinase mRNA
tyrosinase mRNA (tyrosinase mRNA; listed as αTP): not affected
Compound: Cc1c(C)c2c(c(C)c1O)CC[C@@](C)(CCC[C@H](C)CCC[C@H](C)CCCC(C)C)O2 [α-tocopherol, 5,7,8-trimethyltocol]
cell pellet pigmentation (B16 melanoma cells [2]; 20 μM): comparable pigmentation level to controls
tyrosinase protein expression of B16 cells exposed to UV (tyrosinase [6]): not able to block UVB-induced activation of tyrosinase at all time points tested
time response of tyrosinase suppression (tyrosinase [7]): no impact on the suppression of tyrosinase

Compound: CC(C)=CCC/C(C)=C/CC/C(C)=C/CC[C@]1(C)CCc2c(C)c(O)cc(C)c2O1 [β-tocotrienol, 5,8-dimethyltocotrienol]
induction of apoptotic molecules (cleaved caspase 3 and PARP) [1]: induced critical apoptotic molecules in a dose-dependent manner
induction of apoptotic molecules (cleaved caspase 3 and PARP) ([1]; listed as β-T3): induced cellular apoptosis
B16 melanoma cell viability / proliferation rate (B16 melanoma cells [3]): inhibited the proliferation rate of B16 melanoma cells in a dose-dependent fashion; also recorded: inhibit B16 melanoma cell viability at high concentrations

Compound: CC(C)=CCCC(C)=CCCC(C)=CCCC1(C)CCc2cc(OC(=O)CCC(=O)O)c(C)c(C)c2O1 (stereo not shown) [γT3 succinate, γ-tocotrienol succinate]
tyrosinase protein expression (tyrosinase [7]; up to 60 μM): does not suppress tyrosinase protein expression

Compound: CC(=O)Oc1cc(C)c2c(c1)CCC(C)(CCC=C(C)CCC=C(C)CCC=C(C)C)O2 (stereo not shown) [δT3 acetate, δ-tocotrienol acetate]
tyrosinase protein expression (tyrosinase [7]; 20 μM treatment): suppresses tyrosinase protein expression

Compound: alpha arbutin [reference compound]
induction of apoptotic molecules (cleaved caspase 3 and PARP) [1]: induced critical apoptotic molecules in a dose-dependent manner
cell pellet pigmentation (B16 melanoma cells [2]; 20 μM): comparable pigmentation level to controls
cell pellet pigmentation (B16 melanoma cells [2]; 1 mM): lighter cell pigmentation
concentration at which suppression of tyrosinase is observed (tyrosinase [7]): 1 mM
tyrosinase protein expression (tyrosinase [7]; up to 60 μM): does not suppress tyrosinase protein expression
B16 melanoma cell viability / proliferation rate (B16 melanoma cells [3]): inhibit B16 melanoma cell viability at high concentrations

Compound: CC(O)C(=O)[O-].[Na+] (stereo not shown) [sodium lactate, reference compound]
tyrosinase mRNA (tyrosinase mRNA): not affected; also recorded: No change of tyrosinase mRNA
cell pellet pigmentation (B16 melanoma cells [2]; 20 μM): comparable pigmentation level to controls
cell pellet pigmentation (B16 melanoma cells [2]; [8]): Lighter pigmentation
tyrosinase protein expression (tyrosinase [7]; 20 μM treatment): did not result in observable down-regulation; also recorded: does not suppress tyrosinase protein expression
tyrosinase protein suppression, dose response and relative potency (tyrosinase [7]): observed only at much higher concentration
time response of tyrosinase suppression (tyrosinase [7]): opposite observation; also recorded: diminished after 48 hrs
tyrosinase protein expression (tyrosinase [7]; up to 100 μM): does not suppress tyrosinase protein expression

Source: US20130317096A1, “SYNERGISTIC INTERACTION OF AT LEAST ONE VITAMIN E COMPONENT AND TYROSINASE INHIBITORS FOR DERMATOLOGICAL APPLICATIONS” (Davos Life Science Pte Ltd, priority 2010, published 2013)
